Measurements reported in patent publication US20230295564A1, “Galectin-9 Specific Binding Agents for Use in Treating Cancer” (Emory University, priority 2020, published 2023).
Where two headings read alike, the source gives them in different places.

Legend:
[1] = tested on: mB-ALL cell cultures; assay: ACM-induced chemoresistance in mB-ALL cell cultures; assay type: cell-based, murine
[2] = tested on: human B-ALL cell lines; assay: Annexin-V/PI cell death of human B-ALL cell lines pre-conditioned with RPMI, SCM or ACM
Method: Human B-ALL cell lines (Nalm6, REH,) were cultured for 24 hours in unconditioned medium (RPMI), stromal cell-conditioned medium (SCM), or adipocyte-conditioned medium (ACM) and then treated with anti-GAL-9 antibody (αGAL-9 Ab) or an IgG control antibody (IgG ctrl) for an additional 2 days with or without MTX. The percentage of apoptotic and dead cells on day 3 of culture was determined using Annexin-V/ PI staining followed by flow cytometric analysis.
Thus, additional experiments were performed to determine how adipocyte-conditioned medium (ACM)-exposed B-ALL cells responded to chemotherapy treatment. In obese patients, leukemia cells would be exposed to an adipocyte-rich microenvironment prior to chemotherapy administration. To mimic this scenario in vitro, human B-ALL cell lines were pre-treated for 24 hours with unconditioned medium (RPMI), stromal cell-conditioned medium (SCM), or ACM prior to the addition of methotrexate (MTX) for 2 days.

[3] = tested on: murine BCR-ABL+ Arf-/- B-ALL (mB-ALL); details: for survival: once weekly from day 7, MTX 0.75 mg/kg, αGAL-9 Ab 1.5 mg/kg
Method: Lean and obese mice were inoculated intravenously with murine Bcr-Abl+ Arf-/- B-ALL cells (mB-ALL). On day 7 post-inoculation, when GFP+ leukemic blasts were detected in the peripheral blood, treatment with DMSO (Vehicle, n=10), 0.75 mg/kg methotrexate (MTX, n=10), 1.5 mg/kg anti-galectin-9 antibody (αGAL-9 Ab, n=10), or (MTX + αGAL-9 Ab) a combined was initiated. Treatments were administered once weekly. Survival was monitored and significance was determined using the log-rank test with “A” representing a statistically significant difference between vehicle and MTX-treated mice, “B” between vehicle and anti-Gal-9 treated groups, and “C” between vehicle and MTX + anti-Gal-9 treated mice.
A murine BCR-ABL+ Arf-/- B-ALL (mB-ALL) model was used to test whether treatment with anti-GAL-9 antibody could be used as a therapy to treat obese mice with B-ALL. […] C57BL/6 mice were maintained on lean and high-fat diets as previously described and then challenged with mB-ALL. Treatment with vehicle, MTX, anti-GAL-9 antibody, or a combination of MTX and anti-GAL-9 antibody was initiated on day 7 after leukemia inoculation, when GFP+ B-ALL cells were detected in the peripheral blood.

| Compound | chemoresistance induced by ACM [1] | resistance induced by exposure to ACM [2] | decrease of MTX-induced cell death ([2]; cultures pre-treated with ACM) | MTX-induced cell death, effect of pre-conditioning ([2]; pre-conditioning with SCM) | survival ([3]; lean mice) | weight loss ([3]; obese mice) | survival ([3]; obese mice) |
| --- | --- | --- | --- | --- | --- | --- | --- |
| COc1cccc2c1C(=O)c1c(O)c3c(c(O)c1C2=O)C[C@@](O)(C(=O)CO)C[C@@H]3O[C@H]1C[C@H](N)[C@H](O)[C@H](C)O1 [doxorubicin] | induced chemoresistance | induced resistance | – | – | – | – | – |
| CN(Cc1cnc2nc(N)nc(N)c2n1)c1ccc(C(=O)N[C@@H](CCC(=O)O)C(=O)O)cc1 [MTX, methotrexate] | induced chemoresistance | – | 40-70% | not impacted | significantly extended the survival | loss substantial weight | not significantly protected |
| CC[C@]1(O)C[C@H]2CN(CCc3c([nH]c4ccccc34)[C@@](C(=O)OC)(c3cc4c(cc3OC)N(C=O)[C@H]3[C@@](O)(C(=O)OC)[C@H](OC(C)=O)[C@]5(CC)C=CCN6CC[C@]43[C@@H]65)C2)C1 [vincristine] | – | induced resistance | – | – | – | – | – |
